Test results as given in ChEMBL document CHEMBL1143055, “2,3,5-Substituted tetrahydrofurans as cancer chemopreventives. Part 1: synthesis and anti-cancer activities of 5-hydroxymethyl-2,3-diaryl-tetrahydro-furan-3-ols” (2007).

How the values were obtained:
NCI-H522 [1] = test: Antitumor activity against human NCI-H522 cells; assay type: functional
HCT-15 = test: Antitumor activity against human HCT15 cells; assay type: functional
IGROV-1 [2] = test: Growth inhibition of human IGROV1 cells at 0.1 uM; assay type: functional
HOP-92 = test: Antitumor activity against human HOP92 cells; assay type: functional
K562 = test: Antitumor activity against human K562 cells; assay type: functional
HCT-116 = test: Antitumor activity against human HCT116 cells; assay type: functional
SNB-75 = test: Antitumor activity against human SNB75 cells; assay type: functional
A498 = test: Antitumor activity against human A498 cells; assay type: functional
NCI-H226 = test: Antitumor activity against human NCI-H226 cells; assay type: functional
NCI-H522 [3] = test: Growth inhibition of human NCI-H522 cells at 10 uM; assay type: functional
NCI-H460 = test: Antitumor activity against human NCI-H460 cells; assay type: functional
HCC 2998 = test: Antitumor activity against human HCC2998 cells; assay type: functional
PC-3 = test: Antitumor activity against human PC3 cells; assay type: functional
SF-539 = test: Antitumor activity against human SF539 cells; assay type: functional
SNB-19 = test: Antitumor activity against human SNB19 cells; assay type: functional
EKVX = test: Antitumor activity against human EKVX cells; assay type: functional
SF-295 = test: Antitumor activity against human SF295 cells; assay type: functional
DU-145 = test: Antitumor activity against human DU145 cells; assay type: functional
CCRF-CEM = test: Antitumor activity against human CCRF-CEM cells; assay type: functional
NCI/ADR-RES = test: Antitumor activity against human NCI/ADR-RES cells; assay type: functional
UACC-257 = test: Antitumor activity against human UACC257 cells; assay type: functional
MDA-MB-435 = test: Antitumor activity against human MDA-MB-435 cells; assay type: functional
HT-29 = test: Antitumor activity against human HT29 cells; assay type: functional
RXF 393 = test: Antitumor activity against human RXF393 cells; assay type: functional
ACHN = test: Antitumor activity against human ACHN cells; assay type: functional
SR = test: Antitumor activity against human SR cells; assay type: functional
CAKI-1 = test: Antitumor activity against human CAKI-1 cells; assay type: functional
IGROV-1 [4] = test: Growth inhibition of human IGROV1 cells at 1 uM; assay type: functional
KM12 = test: Antitumor activity against human KM12 cells; assay type: functional
[5] = Antitumor activity against human HS 578T cells; assay type: functional
COLO 205 = test: Antitumor activity against human COLO205 cells; assay type: functional
SW-620 = test: Antitumor activity against human SW620 cells; assay type: functional
SK-OV-3 = test: Antitumor activity against human SK-OV-3 cells; assay type: functional
786-0 = test: Antitumor activity against human 786-0 cells; assay type: functional
IGROV-1 [6] = test: Antitumor activity against human IGROV1 cells; assay type: functional
TK-10 = test: Antitumor activity against human TK10 cells; assay type: functional
SN12C = test: Antitumor activity against human SN12C cells; assay type: functional
NCI-H522 [7] = test: Growth inhibition of human NCI-H522 cells at 1 uM; assay type: functional
NCI-H23 = test: Antitumor activity against human NCI-H23 cells; assay type: functional
MOLT-4 = test: Antitumor activity against human MOLT4 cells; assay type: functional
A549 = test: Antitumor activity against human A549 cells; assay type: functional
IGROV-1 [8] = test: Growth inhibition of human IGROV1 cells at 10 nM; assay type: functional
UACC-62 = test: Antitumor activity against human UACC62 cells; assay type: functional
UO-31 = test: Antitumor activity against human UO31 cells; assay type: functional
RPMI-8226 = test: Antitumor activity against human RPMI8226 cells; assay type: functional
LOX IMVI = test: Antitumor activity against human LOX IMVI cells; assay type: functional
IGROV-1 [9] = test: Growth inhibition of human IGROV1 cells at 10 uM; assay type: functional
OVCAR-3 = test: Antitumor activity against human OVCAR-3 cells; assay type: functional
[10] = Antitumor activity against human NCI-H322 cells; assay type: functional
OVCAR-5 = test: Antitumor activity against human OVCAR5 cells; assay type: functional
MCF7 = test: Antitumor activity against human MCF7 cells; assay type: functional
[11] = Antitumor activity against human HL60 (TB) cells; assay type: functional, HL-60(TB); details: HL-60
U-251 = test: Antitumor activity against human U251 cells; assay type: functional
SF-268 = test: Antitumor activity against human SF268 cells; assay type: functional
OVCAR-4 = test: Antitumor activity against human OVCAR4 cells; assay type: functional
HOP-62 = test: Antitumor activity against human HOP62 cells; assay type: functional
[12] = Antitumor activity against human […] cells; assay type: functional
OVCAR-8 = test: Antitumor activity against human OVCAR8 cells; assay type: functional
BT-549 = test: Antitumor activity against human BT549 cells; assay type: functional
SK-MEL-28 = test: Antitumor activity against human SK-MEL-28 cells; assay type: functional
Malme-3M = test: Antitumor activity against human MALME-3M cells; assay type: functional
SK-MEL-5 = test: Antitumor activity against human SK-MEL-5 cells; assay type: functional

OC[C@H]1C[C@](O)(c2ccccc2Cl)[C@@H](c2ccccc2Cl)O1 (relative stereo)
GI50 (NCI-H522 [1]): 13.5 µM | GI50 (HCT-15): 28.2 µM | inhibition at 0.1 µM (IGROV-1 [2]): 28% | GI50 (HOP-92): 22.4 µM | GI50 (K562): 20 µM | GI50 (HCT-116): 25.7 µM | GI50 (SNB-75): 20.9 µM | GI50 (A498): 22.9 µM | GI50 (NCI-H226): 26.3 µM | inhibition at 10 µM (NCI-H522 [3]): 36% | GI50 (NCI-H460): 20 µM | GI50 (HCC 2998): 29.5 µM | GI50 (PC-3): 24 µM | GI50 (SF-539): 22.4 µM | GI50 (SNB-19): 31.6 µM | GI50 (EKVX): 19.1 µM | GI50 (SF-295): 26.9 µM | GI50 (DU-145): 26.9 µM | GI50 (CCRF-CEM): 27.5 µM | GI50 (NCI/ADR-RES): 29.5 µM | GI50 (UACC-257): 19.1 µM | GI50 (MDA-MB-435): 16.2 µM | GI50 (HT-29): 17 µM | GI50 (RXF 393): 18.6 µM | GI50 (ACHN): 27.5 µM | GI50 (SR): 17 µM | GI50 (CAKI-1): 32.4 µM | inhibition at 1 µM (IGROV-1 [4]): 32% | GI50 (KM12): 25.7 µM | GI50 [5]: 16.2 µM | GI50 (COLO 205): 14.8 µM | GI50 (SW-620): 30.2 µM | GI50 (SK-OV-3): 23.4 µM | GI50 (786-0): 26.3 µM | GI50 (IGROV-1 [6]): 11 µM | GI50 (TK-10): 20.9 µM | GI50 (SN12C): 20.9 µM | inhibition at 1 µM (NCI-H522 [7]): 27% | GI50 (NCI-H23): 25.7 µM | GI50 (MOLT-4): 17 µM | GI50 (A549): 22.9 µM | inhibition at 0.01 µM (IGROV-1 [8]): 15% | GI50 (UACC-62): 16.6 µM | GI50 (UO-31): 22.9 µM | GI50 (RPMI-8226): 21.9 µM | GI50 (LOX IMVI): 17 µM | inhibition at 10 µM (IGROV-1 [9]): 46% | GI50 (OVCAR-3): 19.5 µM | GI50 [10]: 32.4 µM | GI50 (OVCAR-5): 22.9 µM | GI50 (MCF7): 26.9 µM | GI50 [11]: 16.6 µM | GI50 (U-251): 28.2 µM | GI50 (SF-268): 24 µM | GI50 (OVCAR-4): 24.5 µM | GI50 (HOP-62): 31.6 µM | GI50 [12]: 18.6 µM | GI50 (OVCAR-8): 26.3 µM | GI50 (BT-549): 17 µM | GI50 (SK-MEL-28): 26.3 µM | GI50 (Malme-3M): 21.4 µM | GI50 (SK-MEL-5): 17 µM
